In patent publication US20150011484A1, “PRODRUGS OF D-GAMMA-GLUTAMYL-D-TRYPTOPHAN AND D-GAMMA-GLUTAMYL-L-TRYPTOPHAN” (APOTEX TECHNOLOGIES, INC., priority 2011, published 2015):

Legend:
[1] = Distribution coefficient determination, D7.4 (1-octanol / MOPS buffer pH 7.4); format: physicochemical
Method: MOPS buffer (50 mM, pH=7.4) and 1-octanol were used as the aqueous phase and the organic phase, respectively. The MOPS buffer and 1-octanol were mixed, and pre-saturated with each other prior to use.
In a typical experiment, an aqueous solution of Apo848 hydrochloride salt (H-D-Glu(D-Trp-O-isoamyl)-O-isoamy HCl) was prepared by weighing out 2 mg of the compound into a 5-mL volumetric flask, followed by addition of MOPS buffer (50 mM, pH=7.4) to volume. The resulting mixture was sonicated and vortexed to ensure complete dissolution. The resulting solution was analyzed by HPLC (Column: XTerra MS C18, […], 4.6×250 mm; Mobile phase: A=4 mM Tris, 2 mM EDTA, pH 7.4 aqueous, B=acetonitrile; Gradient method: time in minutes—B in %:0-5, 15-55, 25-55, 25.05-5, 30-5; Flow rate: 1 mL/min; Injection volume=2 μL; detector wavelength: 282 nm) to obtain the peak height (Haqu^l).
One mL of this aqueous solution was pipetted out into another 10-mL test-tube and mixed with 1 mL of 1-octanol. The mixture was vortexed for 1 hour, then centrifuged at 4000 rpm for 15 minutes. The two phases were separated. Both the aqueous phase and the organic phase were analyzed by HPLC to obtain the peak heights, Haqu^F and Horg^F. The distribution coefficient, D7.4, was calculated using one or both the following equations: D7.4=(Haqu^l−Haqu^F)/Haqu^F, or D7.4=Horg^F/Haqu^F.

human hepatocytes = assay: Biotransformation studies in human cryopreserved hepatocytes; format: in vitro ADME; conditions: for Bioconversion to Apo805 in human hepatocytes: in 3 h, 100 μM, cryopreserved human hepatocytes
Method: LiverPool® cryopreserved human hepatocytes (pooled from 10 male donors) was obtained from Celsis In Vitro Technologies. The hepatocytes were stored in liquid nitrogen until used. Just before the assay, the hepatocytes were quickly thawed at 37° C. and centrifuged at 100×g for 10 min. The media was removed and cells were re-suspended in PBS at a density of 4×10^6 cells/mL.
The compound of Formula I (100 μM) was incubated with 0.1×10^6 hepatocytes in 50 μL volume. […] The “time 0” sample was generated by adding TCA before the test compound. After brief vortexing and 10-min incubation on ice, samples were centrifuged (16,000×g, 10 min) and the supernatants were analyzed by HPLC with UV detection.
HPLC analysis of pro-drugs in SGF, SIF, plasma and hepatocytes samples: HPLC analysis was done using an Agilent 1100 series HPLC system consisting of a programmable multi-channel pump, auto-injector, vacuum degasser and HP detector controlled by Agilent HPLC218 Chem Station Rev.A.09.03 software for data acquisition and analysis. A gradient method was used for the determination of all pro-drugs and their hydrolysis products including Apo805 on an Agilent Eclipse XDB, C18 column (part #963967-902, 150×4.6 mm, 3.5 μm) with the following chromatographic conditions: • Temperature: Ambient • Mobile phase: A=Aqueous phase: 10 mM Tris-HCl, 2 mM EDTA, pH 7.4 • B=Organic phase: Acetonitrile • Gradient method: Time: 0 min 5% B, 25 min 50% B, 35 min 80% B, 45 min 5% B, 50 min 5% B. • Mobile phase flow rate: 1.0 mL/min • Injection volume: 50 μL • Data acquisition time: 30 min • Detection wavelength: 280 nm; 4 nm bandwidth, ref. 360 nm, 4 nm bandwidth
The chromatograms at λ=280 nm were analyzed. Peak area (mAU*s) was used for quantitation of pro-drugs, intermediates and H-D-Glu(D-Trp-OH)—OH (Apo805).

[2] = Pharmacokinetic studies in rats (oral bioavailability); format: in vivo, male Sprague-Dawley rats
Method: Groups of five male Sprague-Dawley rats weighing 250 to 300 g were utilized per dosing group. One day prior to dosing, venous and arterial catheters (made of 20 cm long polyurethane coiled tubing, and filled with 100 units/mL heparinized saline) were implanted into the jugular vein and carotid artery of each rat. Rats were fasted overnight prior to oral dosing and fed approximately 2 hours post-dosing. All dosing and blood sampling was performed on fully conscious rats. Tested compounds were administered either by oral gavage as solutions in water, or by intravenous injection (Apo805K1 only) as solution in 0.9% sodium chloride, final pH 7.0, at doses equivalent to 5 mg/kg (per Apo805 content). Blood (0.3 mL) was sampled from each animal from the carotid artery for up to 30 hours post-dosing, each sampling followed by an equivalent naive-blood replacement. The blood sample was immediately centrifuged (4300×g for 5 minutes at 4° C.), and frozen at −80° C. until LC/MS/MS analysis.
Metanol (200 μL) was added to plasma samples (50 μL) to precipitate plasma proteins. After brief vortexing and centrifugation, the supernatant (200 uL) was removed and dried at 40° C. under a stream if nitrogen. The sample was reconstituted in water (300 μL) and 25 μL was injected for analysis.
A Sciex API 365 LC/MS/MS spectrophotometer equipped with Ionics EP10+ and HSID, was used. A chiral column (Supelco-Astec CHIROBIOTIC™ TAG), 100×2.1 mm, 5 μm was used at ambient temperature. The mobile phase consisted of 0.1% formic acid in water (A) and 0.1% formic acid in acetonitrile (B) in a ratio of 88:12(A:B; v/v) and the flow rate was 0.6 mL/min. Positive ion electrospray ionization (ESI+) in MRM mode was used for analysis. Samples were analysed for the concentration of Apo805.
Absolute oral bioavailability of pro-drugs Apo848, a compound of Formula IA wherein G=T=isoamyl) was compared to that of Apo805K1 (potassium salt of H-D-Glu(D-Trp-OH)—OH) in male Sprague-Dawley rats. Adult animals, five per group, were dosed orally with 5 mg/kg Apo805K1, Apo848, or Apo838 and intravenously with 5 mg/kg Apo805K1.
Non-compartmental analysis was performed using WinNonlin 5.2 software, on individual animal data. Bioavailability was calculated as a ratio of AUCINF—D after oral dosing of test compound to AUCINF—D after IV dosing of Apo805K1.

[3] = Conversion of prodrug to Apo805 in rat blood; format: in vitro ADME
[4] = Caco-2 cell permeability evaluation; format: in vitro ADME; conditions: human; caco-2, 50 μM, HBSS pH 7.4, 37° C.; read-out: apparent permeability (Papp)
Method: Human intestinal absorbtion potential of a compound of Formula I was estimated in caco-2 cells permeability assay.
Caco-2 cells obtained originally from ATCC were seeded onto 0.9-cm^2 PET filter (Becton Dickinson) at a density of 90000 cells/insert. Culture conditions were maintained for 21-28 days in 20% fetal bovine serum containing eagle's minimum essential medium enriched with non-essential amino acids. Integrity of the cell monolayers was evaluated via measurement of Lucifer Yellow paracellular apparent permeability coefficient (Papp).
Prior to the addition of a test compound, growth medium was removed and monolayer was rinsed twice with Hank's balanced salt solution (HBSS) at 37° C. The filter inserts containing the cell monolayers were transferred to a separate 12-well cell culture plate containing HBSS or solution of the test compound in the bottom chamber. […] For every experiment, the test compound solution was added to the top (apical-to-basolateral transport, A>B) or bottom (basolateral-to-apical transport, B>A) chamber and its appearance in the opposite chamber over time was monitored. […] Samples were analyzed by LC-MS/MS. In case of prodrugs which undergo partial hydrolysis during the experiment, the samples were analyzed for the concentration of the prodrug and all hydrolysis products. […]

COC(=O)[C@@H](Cc1c[nH]c2ccccc12)NC(=O)CC[C@@H](N)C(=O)OCc1ccccc1 [Apo804, H-D-Glu(D-Trp-OMe)-O—CH2Ph]
log D7.4 compared with Apo805 ([1]; more lipophilic than Apo805): higher
Bioconversion to Apo805 in human hepatocytes (human hepatocytes): 30%
Apo805 formed in human cryopreserved hepatocyte (human hepatocytes; over a period of 4 hours): 31%

N[C@H](CCC(=O)N[C@H](Cc1c[nH]c2ccccc12)C(=O)O)C(=O)O [Apo805, D-gamma-glutamyl-D-tryptophan]
Log D7.4 ([1]; pH 7.4, 1-octanol/MOPS buffer): −3.22

N[C@H](CCC(=O)N[C@H](Cc1c[nH]c2ccccc12)C(=O)[O-])C(=O)[O-].[H+].[K+] [Apo805K1, potassium salt of H-D-Glu(D-Trp-OH)—OH, reference compound]
Absolute oral bioavailability (AUC oral / AUC intravenous Apo805K1; Apo805 measured in plasma) ([2]; rats, oral 5 mg/kg): 12%

COC(=O)[C@H](N)CCC(=O)N[C@H](Cc1c[nH]c2ccccc12)C(=O)OC [Apo840, H-D-Glu(D-Trp-O—Me)—O—Me, reference compound]
Log D7.4 ([1]; pH 7.4, 1-octanol/MOPS buffer): 0.57
Bioconversion to Apo805 in human hepatocytes (human hepatocytes): 30% in 3 h

CC(C)CCOC(=O)[C@H](N)CCC(=O)N[C@H](Cc1c[nH]c2ccccc12)C(=O)OCCC(C)C.Cl [Apo848, 3-methylbutyl (2R)-2-amino-5-{[(2R)-3-(1H-indol-3-yl)-1-(3-methylbutoxy)-1-oxopropan-2-yl]amino}-5-oxopentanoate hydrochloride]
improvement of the log D value of H-D-Glu(D-Trp-OH)—OH ([1]; diisoamyl ester versus parent drug): more than 10^5 fold
Log D7.4 ([1]; pH 7.4, 1-octanol/MOPS buffer): 2.1
distribution coefficient D7.4 ([1]; pH 7.4, 1-octanol/MOPS buffer): 127
logD ([1]; pH 7.4, 1-octanol/MOPS buffer, read-out: Log D7.4): 2.1
Absolute oral bioavailability (AUC oral / AUC intravenous Apo805K1; Apo805 measured in plasma) ([2]; male, Sprague-Dawley, rat, in vivo, 5 mg/kg): 48%
oral bioavailability compared with Apo805 ([2]; rat, in vivo, po): enhanced
oral exposure compared with H-D-Glu(D-Trp-OH)—OH ([2]; rat, in vivo, po): improved
conversion to Apo805 in rat blood [3]: instantaneously converted
Papp at 120 min, 50 μM [4]: 2.87 ×10⁻⁶ cm/s

COC(=O)[C@@H](Cc1c[nH]c2ccccc12)NC(=O)CC[C@@H](N)C(=O)O [H-D-Glu(D-Trp-OMe)-OH, reference compound]
Log D7.4 ([1]; pH 7.4, 1-octanol/MOPS buffer): −0.89
